Source: patent US12428402B2, “Resmetirom crystal, preparation method for same, and uses thereof” (CRYSTAL PHARMACEUTICAL (SUZHOU) CO., LTD., priority 2019, dated 2025)
≈ marks a conversion by molar mass, not a printed value. Where “and” joins values, the source holds several entries; their conditions need not be identical. Equal entries are not always repeated. Entries after “also recorded” stand apart in the source; their conditions may differ.

Legend:
Format in all cases: physicochemical
[1] = Compressibility (manual tablet press, tensile strength); settings: for Diameter / Hardness / Thickness: 80 mg, φ6 mm round tooling, 10 kN, 24 h at room temperature; for Diameter / Hardness / Thickness / Tensile strength: tablets 1 and 2; for Average tensile strength / Tensile strength: T=2H/πDL
Protocol: ENERPAC manual tablet press was used for compression. 80 mg of Form CSIV and 80 mg of Form I were weighed and added into the dies of a φ6 mm round tooling, compressed at 10 kN manually, then stored at room temperature for 24 h. Diameter (D) and thickness (L) were tested with caliper. When elastic recovery is complete, hardness (H) was tested with an intelligent tablet hardness tester. Tensile strength of the powder was calculated with the following formula: T=2H/πDL. Under a certain force, the greater the tensile strength, the better the compressibility.

[2] = Physical stability upon grinding (XRPD); settings: ground manually for 5 minutes in a mortar
Protocol: Form CSV and Form I were grounded manually for 5 minutes in a mortar. Crystalline forms before and after grinding were checked by XRPD. […] Compared with Form I, Form CSV has better physical stability upon grinding.

[3] = Physical and chemical stability on storage (XRPD, HPLC)
Protocol: A certain amount of Form CSIV of the present disclosure was sealed up and stored under different conditions of 25° C./60% RH, 40° C./75% RH, and 60° C./75% RH. Crystalline form and chemical purity were checked by XRPD and HPLC, respectively.
A certain amount of Form CSV of the present disclosure was stored under different conditions of 40° C./75% RH and 60° C./75% RH in open and sealed dishes. Crystalline form and chemical purity were checked by XRPD and HPLC, respectively.

[4] = Hygroscicity by dynamic vapor sorption (DVS); settings: for hygroscopicity class / weight gain: 25° C./80% RH; for hygroscopicity class: Chinese Pharmacopoeia definition; for weight gain: DVS; for crystalline state before and after DVS: cycle of 0-95% RH
Protocol: Dynamic Vapor Sorption (DVS) was measured via an SMS (Surface Measurement Systems Ltd.) intrinsic DVS instrument. Typical Parameters for DVS test are as follows: • Temperature: 25° C. • Gas and flow rate: N2, 200 mL/min • RH range: 0% RH to 95% RH
Dynamic vapor sorption (DVS) analyzer was applied to test hygroscopicity of Form CSIV and Form CSV with certain amount of samples. The weight gains at each relative humidity were recorded in a cycle of 0-95% RH. […] The weight gain of Form CSV under 25° C./80% RH is 0.13%. […] The DVS curve of Form CSIV and Form CSV are shown in FIG. 9 and FIG. 10, respectively.
Description and definition of hygroscopicity (general notice 9103 drug hygroscopicity test guidelines in 2020 edition of Chinese Pharmacopoeia, test at 25° C.±1° C., 80% RH±2% RH. The definition of hygroscopicity in the 9th European Pharmacopoeia 5.11 is consistent with the Chinese Pharmacopoeia). • deliquescent: Sufficient water is absorbed to form a solution; • very hygroscopic: Increase in mass is equal to or greater than 15%; • hygroscopic: Increase in mass is less than 15% and equal to or greater than 2%; • slightly hygroscopic: Increase in mass is less than 2% and equal to or greater than 0.2%. • non hygroscopic or almost non hygroscopic: Increase in mass is less than 0.2%.

[5] = Kinetic solubility in SGF; settings: for 1 hour Concentration: equilibrated 1 h
Protocol: When solubility test is used to predict the in vivo performance of a drug, it is critical to simulate in vivo conditions as closely as possible. SGF can be used to simulate the condition in vivo and predict the effects of eating, thus solubility in this medium is closer to that in vivo.
Approximately 5-20 mg of Form CSIV and 5-20 mg Form CSV of the present disclosure were suspended into 2.0 mL of SGF to get suspensions. After equilibrated for 1 h and 24 h, concentrations (μg/mL) of these solutions were measured by UPLC.

[6] = 40° C./75% RH (open), one month
[7] = 40° C./75% RH (sealed), one month
[8] = 60° C./75% RH (sealed), one week

CC(C)c1cc(Oc2c(Cl)cc(-n3nc(C#N)c(=O)[nH]c3=O)cc2Cl)n[nH]c1=O [Form I, 2-(3,5-dichloro-4-((5-isopropyl-6-oxo-1,6-dihydropyridazin-3-yl)oxy)phenyl)-3,5-dioxo-2,3,4,5-tetrahydro-1,2,4-triazine-6-carbonitrile, reference compound]
Diameter [1]: 6.01 mm and 6.11 mm | Hardness [1]: 8.7 kg and 7.9 kg | Thickness [1]: 2.11 mm and 2.00 mm | Average tensile strength ([1]; compressed at 10 kN): 0.43 MPa | Tensile strength ([1]; compressed at 10 kN): 0.44 MPa and 0.41 MPa | crystalline state after grinding [2]: almost transform into amorphous after grinding; also recorded: transforms into amorphous after grinding

CC(C)c1cc(Oc2c(Cl)cc(-n3nc(C#N)c(=O)[nH]c3=O)cc2Cl)n[nH]c1=O [Form CSIV, 2-(3,5-dichloro-4-((5-isopropyl-6-oxo-1,6-dihydropyridazin-3-yl)oxy)phenyl)-3,5-dioxo-2,3,4,5-tetrahydro-1,2,4-triazine-6-carbonitrile]
time for which the form is stable / crystalline state doesn't change ([3]; 25° C./60% RH sealed): at least 6 months | Crystalline form ([3]; 25° C./60% RH sealed, 6 months): Form CSIV | time for which the form is stable / crystalline state doesn't change ([3]; 40° C./75% RH sealed): at least 6 months | Crystalline form ([3]; 40° C./75% RH sealed, 6 months): Form CSIV | Purity ([3]; 40° C./75% RH sealed, 6 months): 99.76% | time for which crystalline state doesn't change ([3]; 60° C./75% RH sealed): at least 1 month | time for which the form is stable ([3]; 60° C./75% RH sealed, in words): at least one month | Crystalline form ([3]; 60° C./75% RH sealed, one month): Form CSIV | Crystalline form ([3]; Initial): Form CSIV | Purity ([3]; Initial): 99.80% | hygroscopicity class [4]: slightly hygroscopic (Increase in mass is less than 2% and equal to or greater than 0.2%) | weight gain [4]: 0.58% | crystalline state before and after DVS [4]: remains unchanged before and after DVS | Diameter [1]: 6.03 mm and 6.04 mm | Hardness [1]: 28.3 kg and 27.7 kg | Thickness [1]: 2.12 mm | Average tensile strength ([1]; compressed at 10 kN): 1.40 MPa | Tensile strength ([1]; compressed at 10 kN): 1.41 MPa and 1.38 MPa | crystalline state before and after tableting ([1]; compressed at 10 kN, XRPD): remains unchanged before and after tableting | 1 hour Concentration ([5]; UPLC): 11.7 µg/mL | solubility relative to that of Form I ([5]; equilibrated 1 hour): 10.6 times | solubility relative to that of Form I ([5]; equilibrated 24 hours): 5.0 times | solubility thermodynamic at 24 h ([5]; simulated gastric fluid, thermodynamic from solid, equilibrated 24 h, UPLC, read-out: 24 hours Concentration): 5.5 µg/mL (≈ 12.6 µM)

CC(C)c1cc(Oc2c(Cl)cc(-n3nc(C#N)c(=O)[nH]c3=O)cc2Cl)n[nH]c1=O [Form CSV, 2-(3,5-dichloro-4-((5-isopropyl-6-oxo-1,6-dihydropyridazin-3-yl)oxy)phenyl)-3,5-dioxo-2,3,4,5-tetrahydro-1,2,4-triazine-6-carbonitrile]
Crystalline form [3, 6]: Form CSV | Purity [3, 6]: 99.81% | Crystalline form [3, 7]: Form CSV | Purity [3, 7]: 99.85% | chemical purity during storage ([3]; 40° C./75% RH one month, 60° C./75% RH one week): above 99.8% | time for which the form is stable ([3]; 40° C./75% RH open and sealed dishes, in words): at least one months | time for which crystalline state doesn't change ([3]; 40° C./75% RH sealed, in words): at least one month | Crystalline form ([3]; 60° C./75% RH (open), one week): Form CSV | Purity ([3]; 60° C./75% RH (open), one week): 99.86% | Crystalline form [3, 8]: Form CSV | Purity [3, 8]: 99.87% | time for which the form is stable / crystalline form doesn't change ([3]; 60° C./75% RH open and sealed, in words): at least one week | Crystalline form ([3]; Initial): Form CSV | hygroscopicity class [4]: non hygroscopic or almost non-hygroscopic | weight gain [4]: 0.13% | crystalline state before and after DVS [4]: remains unchanged before and after DVS | crystalline state after grinding [2]: does not change before and after grinding; also recorded: doesn't change after grinding | 1 hour Concentration ([5]; UPLC): 7.8 µg/mL | solubility relative to that of Form I ([5]; equilibrated 1 hour): 7.1 times | 24 hours Concentration ([5]; equilibrated 24 h, UPLC): 9.6 µg/mL | solubility relative to that of Form I ([5]; equilibrated 24 hours): 8.7 times
